SMILES strings stand for the structures. pEC50: −log10 of the molar value. Where a name gives a salt, the structure may show the parent alone. Where only a bound is given, the exact number is not on record here.

The term pEC50 denotes −log10 of the EC50, conventionally taken in molar units. Low values mean a large EC50, high ones a small EC50.

The first assay relates to progranulin (PGRN) secretion, BV-2 cells. Description: PGRN assay: progranulin induction cellular assay (ELISA of secreted mouse PGRN).
Conditions: not given
Format: cell-based. An outline of the steps: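 Progranulin induction measured in BV-2 cells plated at about 80% confluence the day before, given 1 h to attach, then incubated 16 h. Secreted mouse PGRN quantified by ELISA.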
With `O=C(O[C@@H]1CN2CCC1CC2)N1CCn2ccnc2C1c1ccc(F)cc1` (stereo partly drawn) [Compound 2123, (S)-quinuclidin-3-yl 8-(4-fluorophenyl)-5,6-dihydroimidazo[1,2-a]pyrazine-7(8H)-carboxylate], the pEC50 is below 5.00. Compound `O=C(O[C@@H]1CN2CCC1CC2)N1CCc2ccsc2C1c1ccc(F)cc1` (stereo partly drawn) [Compound 2122, (S)-quinuclidin-3-yl 7-(4-fluorophenyl)-4,7-dihydrothieno[2,3-c]pyridine-6(5H)-carboxylate] showed a pEC50 of 5.48. The same measure, in the same setting: the value for `Fc1ccc(C2c3ccccc3CCN2C(C[C@@H]2CN3CCC2CC3)C(F)(F)F)cc1` (stereo partly shown) [Compound 2133] was 5.01.

Still in this assay, the particulars now being: Mus musculus, BV-2.
`CNC(=O)c1ccc2c(c1)[C@H](c1ccc(F)cc1)N(C(=O)O[C@@H]1CN3CCC1CC3)CC2` [Compound 2065] had a negative-log EC50 (pEC50) below 5.00. Same read-out and setting: the value for `CS(=O)(=O)c1ccc2c(c1)CCN(C(=O)O[C@@H]1CN3CCC1CC3)[C@H]2c1ccc(F)cc1` [Compound 2025] was below 5.00. Same read-out and setting: then `O=C(O[C@@H]1CN2CCC1CC2)N1CCc2ccccc2[C@H]1c1ccc2[nH]c(=O)sc2c1` [Compound 2012], with below 5.00.

The same assay, now with this note: Mus musculus, BV-2, PGRN assay, Table C; secreted mouse PGRN in cell culture medium, ELISA.
`O=C(O[C@@H]1CCCNC1)N1CCc2ccccc2[C@@H]1c1ccc(F)cc1` (single isomer, unassigned) [Compound 2181] showed a pEC50 of 6.66.

As for `CN1CCC(COC(=O)N2CCc3ccccc3[C@@H]2c2ccc(F)c(F)c2)CC1` [Compound 2138, (1-methylpiperidin-4-yl)methyl-1-(3,4-difluorophenyl)-3,4-dihydroisoquinoline-2(1H)-carboxylate], the pEC50 is 5.92. On the same count and under the same terms, the value for `O=C(O[C@H]1CCNC1)N1CCc2ccccc2[C@@H]1c1ccc(F)cc1` [Compound 2180, (1S)—((S)-pyrrolidin-3-yl)-1-(4-fluorophenyl)-3,4-dihydroisoquinoline-2(1H)-carboxylate] was 7.08; that for `CN1CC2(CC[C@H]2OC(=O)N2CCc3ccccc3[C@@H]2c2ccc(F)cc2)C1` [Compound 2022] was 6.02; that for `O=C([C@H](O)[C@@H]1CN2CCC1CC2)N1CCc2ccccc2[C@@H]1c1ccc(F)cc1` (stereo in doubt) [Compound 2075, 1-((S)-1-(4-fluorophenyl)-3,4-dihydroisoquinolin-2(1H)-yl)-2-hydroxy-2-(quinuclidin-3-yl)ethanone] was 6.05. Compound `COc1ncc(COc2ccc([C@@H]3c4ccccc4CCN3C(=O)OCC34CCN(CC3)CC4)cc2)cn1` [Compound 2146] showed a negative-log EC50 (pEC50) of 5.79. Against the preceding compound, the pEC50 is 0.26 log units lower. Still for that read-out and setting: the value for `CN(CC1CCNCC1)C(=O)N1CCc2ccccc2[C@H]1c1ccc(F)cc1` [Compound 2183, 1-(4-fluorophenyl)-N-methyl-N-(piperidin-4-ylmethyl)-3,4-dihydroisoquinoline-2(1H)-carboxamide] was 5.02.

For `CN1CCO[C@H](COC(=O)N2CCc3ccccc3[C@@H]2c2ccc(F)cc2)C1` [Compound 2004], the pEC50 was 5.98. On the same count and under the same terms, the value for `O=C(N[C@@H]1CCN2CCC[C@H]12)N1CCc2ccccc2[C@@H]1c1ccc(F)cc1` [Compound 2048] was 5.72; that for `O=C(OCC12CCN(CC1)CC2)N1CCc2ccccc2[C@@H]1c1ccc(F)cc1F` [Compound 2096] was 6.41; that for `O=S(=O)(N[C@@H]1CN2CCC1CC2)N1CCc2ccccc2[C@@H]1c1ccc(F)cc1` [Compound 2010] was below 5.00.

With `C#CCN1CCC(COC(=O)N2CCc3ccccc3[C@@H]2c2ccc(F)cc2)CC1` [Compound 2194, (1-(prop-2-yn-1-yl)piperidin-4-yl)methyl (S)-1-(4-fluorophenyl)-3,4-dihydroisoquinoline-2(1H)-carboxylate], the pEC50 was 5.49. Still for that read-out and setting: then `COc1ncc(COc2ccc([C@H]3c4ccccc4CCN3C(=O)OCC34CCN(CC3)CC4)cc2)cn1` [Compound 2145], with 5.53; and `CNC(=O)c1ccc2c(c1)CCN(C(=O)OCC13CCN(CC1)CC3)[C@@H]2c1ccc(F)cc1` [Compound 2081], with below 5.00. Same read-out and setting: then `O=C(O[C@@H]1CCNC1)N1CCc2ccccc2[C@@H]1c1ccc(F)cc1` [Compound 2179, (1S)—((R)-pyrrolidin-3-yl)-1-(4-fluorophenyl)-3,4-dihydroisoquinoline-2(1H)-carboxylate], with 6.92; and `COCCOCCOc1ccc(COc2ccc([C@@H]3c4ccccc4CCN3C(=O)OCC34CCN(CC3)CC4)cc2)cc1` [Compound 2047], with below 5.57; and `C#CCOc1ccc2c(c1)CCN(C(=O)N[C@@H]1CN3CCC1CC3)[C@@H]2c1ccc(F)cc1` [Compound 2064], with below 5.00. Still for that read-out and setting: the value for `O=C(OCC12CCN(CC1)CC2)N1CCc2ccccc2[C@@H]1c1cc(F)cc(F)c1` (single isomer, unassigned) [Compound 2140, quinuclidin-4-ylmethyl-1-(3,5-difluorophenyl)-3,4-dihydroisoquinoline-2(1H)-carboxylate] was 5.00; that for `N#Cc1ccc2c(c1)[C@H](c1ccc(F)cc1)N(C(=O)N[C@@H]1CN3CCC1CC3)CC2` [Compound 2038, 7-cyano-1-(4-fluorophenyl)-N—((S)-quinuclidin-3-yl)-3,4-dihydroisoquinoline-2(1H)-carboxamide] was below 5.00. In turn, `CN1CCC2(CC1)CC(OC(=O)N1CCc3ccccc3[C@@H]1c1ccc(F)cc1)C2` [Compound 2018] gave a pEC50 of 5.72. For `CNC(=O)c1ccc2c(c1)CCN(C(=O)OCC13CCN(CC1)CC3)[C@H]2c1ccc(F)cc1` [Compound 2080], the negative logarithm of the EC50 (pEC50) is below 5.00. Same read-out and setting: the value for `O=C(O[C@@H]1[C@@H]2CC[C@H]1CNC2)N1CCc2ccccc2[C@@H]1c1ccc(F)cc1` (single isomer, unassigned) [Compound 2103] was 5.37; that for `N#Cc1ccc2c(c1)[C@@H](c1ccc(F)cc1)N(C(=O)N[C@@H]1CN3CCC1CC3)CC2` [Compound 2039, 7-cyano-1-(4-fluorophenyl)-N—((S)-quinuclidin-3-yl)-3,4-dihydroisoquinoline-2(1H)-carboxamide] was below 5.00; that for `O=C(NCc1ccncc1)N1CCc2ccccc2[C@@H]1c1ccc(F)cc1` [Compound 2152] was 5.19.

The assay is the same for the next values; noted with them: Mus musculus, BV-2, PGRN assay, Table D; secreted mouse PGRN in cell culture medium, ELISA.
`O=C(NCC1CNC[C@@H]1O)N1CCc2ccccc2[C@@H]1c1ccc(F)cc1` (stereo partly drawn) [Compound 2308, (S)-1-(4-fluorophenyl)-N-((cis-4-hydroxypyrrolidin-3-yl)methyl)-3,4-dihydroisoquinoline-2(1H)-carboxamide]: the pEC50 is 5.53.

`CN1[C@H]2CC[C@@H]1[C@@H](NC(=O)N1CCc3ccccc3[C@@H]1c1ccc(F)cc1)C2` [Compound 2226] showed a pEC50 of 5.57. This pEC50 and that of the compound before are within 0.2 log units of each other. Still for that read-out and setting: then `O=C1N[C@H](CNC(=O)N2CCc3ccccc3[C@@H]2c2ccc(F)cc2)CO1` [Compound 2259, (S)-1-(4-fluorophenyl)-N—(((R)-2-oxooxazolidin-4-yl)methyl)-3,4-dihydroisoquinoline-2(1H)-carboxamide], with below 5.00; and `O=C(NC1(C2CCNCC2)CC1)N1CCc2ccccc2[C@@H]1c1ccc(F)cc1` [Compound 2208], with 5.14; and `O=C(O[C@@H]1CCNC1)N1CCc2ccccc2[C@H]1c1ccc(F)cc1` [Compound 2266, (R)-pyrrolidin-3-yl (R)-1-(4-fluorophenyl)-3,4-dihydroisoquinoline-2(1H)-carboxylate], with 6.59. Still for that read-out and setting: then `O=C(NC[C@H]1CCCN1)N1CCc2ccccc2[C@H]1c1ccc(F)cc1` (single isomer, unassigned) [Compound 2219], with 5.21; and `CN(CC1CNC1)C(=O)N1CCc2ccccc2[C@@H]1c1ccc(F)cc1` [Compound 2283, (S)—N-(azetidin-3-ylmethyl)-1-(4-fluorophenyl)-N-methyl-3,4-dihydroisoquinoline-2(1H)-carboxamide], with below 5.00.

`CN1CCC(NC(=O)N2CCc3ccccc3[C@@H]2c2ccc(F)cc2)CC1` [Compound 2238, (S)-1-(4-fluorophenyl)-N-(1-methylpiperidin-4-yl)-3,4-dihydroisoquinoline-2(1H)-carboxamide] had a pEC50 of 6.14.

Compound `O=C(N1CC[C@@]2(CNCCO2)C1)N1CCc2ccccc2[C@@H]1c1ccc(F)cc1` (single isomer, unassigned) [Compound 2324] gave a pEC50 of 6.13. This pEC50 and that of the compound before are within 0.2 log units of each other. Same read-out and setting: the value for `CN1[C@H]2CC[C@@H]1[C@H](NC(=O)N1CCc3ccccc3[C@@H]1c1ccc(F)cc1)C2` (single isomer, unassigned) [Compound 2225] was 6.00; that for `CN1[C@@H]2CC[C@H]1[C@H](NC(=O)N1CCc3ccccc3[C@@H]1c1ccc(F)cc1)C2` [Compound 2227] was 5.38; that for `CN1CCN(C(=O)N2CCc3ccccc3[C@@H]2c2ccc(F)cc2)CC(F)(F)C1` [Compound 2261, (S)-(6,6-difluoro-4-methyl-1,4-diazepan-1-yl)(1-(4-fluorophenyl)-3,4-dihydroisoquinolin-2(1H)-yl)methanone hydrochloride] was below 5.00.

For `O=C(N1CCN2CCC1CC2)N1CCc2ccccc2[C@@H]1c1ccc(F)cc1` [Compound 2252], the pEC50 was 6.92.

The compound `CN1CC[C@H](OC(=O)N2CCc3ccccc3[C@@H]2c2ccc(F)cc2)C1` [Compound 2251] showed a pEC50 of 6.96. Same read-out and setting: the value for `CN(C(=O)N1CCc2ccccc2[C@@H]1c1ccc(F)cc1)[C@@H]1CCCNC1` (single isomer, unassigned) [Compound 2213] was 5.45. Still for that read-out and setting: the value for `CN1C[C@H](NC(=O)N2CCc3ccccc3[C@@H]2c2ccc(F)cc2)C2(CC2)C1` [Compound 2315] was 6.13.

With `CN1[C@@H]2CC[C@H]1[C@@H](NC(=O)N1CCc3ccccc3[C@@H]1c1ccc(F)cc1)C2` [Compound 2224], the negative-log EC50 (pEC50) is 6.32.

The assay is the same for the next values; noted with them: PGRN assay, Table C; secreted mouse PGRN in cell culture medium, ELISA.
In turn, `CN1CCC(COC(=O)N2CCc3ccccc3[C@@H]2c2ccc(F)cc2)CC1` [Compound 2095] gave a pEC50 of 5.50. Take `O=C(OC1CNC1)N1CCc2ccccc2[C@@H]1c1ccc(F)cc1` [Compound 2162]: the pEC50 is below 5.00.

These data come from patent US20220251084A1, “PROGRANULIN MODULATORS AND METHODS OF USING THE SAME” (ARKUDA THERAPEUTICS, priority 2019, published 2022).
